Values after ≈ are worked out from the molar mass of the structure shown.
Legend:
EGFR (human) [1] = target: EGFR (human) (UniProt P00533); conditions: mda-mb-435
EGFR (human) [2] = target: EGFR (human) (UniProt P00533); conditions: sw 620
EGFR (human) [3] = target: EGFR (human) (UniProt P00533); conditions: a431
EGFR (human) [4] = target: EGFR (human) (UniProt P00533); conditions: sk-br-3
EGFR (human) [5] = target: EGFR (human) (UniProt P00533); conditions: her2/3t3
EGFR (human) [6] = target: EGFR (human) (UniProt P00533); conditions: 3t3

Chain of EGFR (human) (P00533 whole entry, looked up): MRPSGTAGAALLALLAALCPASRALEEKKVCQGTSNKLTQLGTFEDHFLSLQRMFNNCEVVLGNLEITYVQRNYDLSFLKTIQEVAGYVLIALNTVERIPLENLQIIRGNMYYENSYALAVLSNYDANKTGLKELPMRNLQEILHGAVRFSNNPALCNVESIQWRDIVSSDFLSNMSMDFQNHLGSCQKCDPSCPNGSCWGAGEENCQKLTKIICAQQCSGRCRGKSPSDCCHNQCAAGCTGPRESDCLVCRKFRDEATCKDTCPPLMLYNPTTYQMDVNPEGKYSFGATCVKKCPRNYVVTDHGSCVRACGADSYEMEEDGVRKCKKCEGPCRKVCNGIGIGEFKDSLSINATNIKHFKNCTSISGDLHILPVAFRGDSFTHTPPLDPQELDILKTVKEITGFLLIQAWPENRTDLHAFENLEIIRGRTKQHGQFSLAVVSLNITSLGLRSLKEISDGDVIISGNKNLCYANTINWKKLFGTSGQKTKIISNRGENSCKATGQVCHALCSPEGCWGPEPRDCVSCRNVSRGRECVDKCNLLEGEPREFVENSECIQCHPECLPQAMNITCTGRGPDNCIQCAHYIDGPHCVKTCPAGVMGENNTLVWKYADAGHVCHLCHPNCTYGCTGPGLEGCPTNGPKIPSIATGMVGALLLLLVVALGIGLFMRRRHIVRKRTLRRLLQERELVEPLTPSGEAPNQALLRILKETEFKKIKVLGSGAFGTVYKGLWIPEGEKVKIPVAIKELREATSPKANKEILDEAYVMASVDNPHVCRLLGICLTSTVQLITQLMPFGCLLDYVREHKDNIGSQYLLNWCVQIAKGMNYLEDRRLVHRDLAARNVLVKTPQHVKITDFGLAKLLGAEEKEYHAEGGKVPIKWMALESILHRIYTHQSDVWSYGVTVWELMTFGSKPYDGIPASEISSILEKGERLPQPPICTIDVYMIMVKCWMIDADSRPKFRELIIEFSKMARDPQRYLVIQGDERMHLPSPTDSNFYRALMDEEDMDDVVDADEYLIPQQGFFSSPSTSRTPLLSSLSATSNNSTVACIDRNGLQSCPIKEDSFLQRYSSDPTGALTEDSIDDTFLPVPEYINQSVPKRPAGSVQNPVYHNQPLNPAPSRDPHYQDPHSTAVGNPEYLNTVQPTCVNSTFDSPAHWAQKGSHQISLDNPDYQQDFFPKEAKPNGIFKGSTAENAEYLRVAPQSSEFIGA

| SMILES | IC50 (EGFR (human) [1]) [µg/mL] | IC50 (EGFR (human) [2]) [µg/mL] | IC50 (EGFR (human) [3]) [µg/mL] | IC50 (EGFR (human) [4]) [µg/mL] | IC50 (EGFR (human) [5]) [µg/mL] | IC50 (EGFR (human) [6]) [µg/mL] |
| --- | --- | --- | --- | --- | --- | --- |
| CN1CCC=C(C(=O)Nc2ccc3ncc(C#N)c(Nc4cccc(Br)c4)c3c2)C1 | 3.19 (≈ 6.91 µM) | > 5 | 0.369 (≈ 0.798 µM) | 1.5 (≈ 3.23 µM) |  |  |
| CCOc1c(Nc2ccc3ncc(C#N)c(Nc4cccc(Br)c4)c3c2)c(=O)c1=O | 27.6 (≈ 59.6 µM) | 18 (≈ 38.8 µM) | 4.91 (≈ 10.6 µM) | 1.74 (≈ 3.76 µM) |  |  |
| COc1cc2ncc(C#N)c(Nc3ccc(F)c(Cl)c3)c2cc1NC(=O)/C=C/CN1CCC2(CC1)OCCO2 | 3.32 (≈ 6.01 µM) | 2.51 (≈ 4.55 µM) | 0.283 (≈ 0.513 µM) | 0.188 (≈ 0.341 µM) | 0.35 (≈ 0.634 µM) | 2.79 (≈ 5.05 µM) |
| COCCN(C)C/C=C\C(=O)Nc1cc2c(Nc3ccc(F)c(Cl)c3)c(C#N)cnc2cc1OC | 2.07 (≈ 4.16 µM) | 1.53 (≈ 3.07 µM) | 0.245 (≈ 0.492 µM) | 0.107 (≈ 0.215 µM) | 0.192 (≈ 0.386 µM) | 2.04 (≈ 4.1 µM) |
| COC[C@@H]1CCCN1CC#CC(=O)Nc1ccc2ncc(C#N)c(Nc3cccc(Br)c3)c2c1 | 0.3 (≈ 0.579 µM) | 0.1 (≈ 0.193 µM) |  |  |  |  |
| COc1cc2ncc(C#N)c(Nc3ccc(F)c(Cl)c3)c2cc1NC(=O)/C=C\CN1CCCC(CO)C1 (stereo not given) | 1.83 (≈ 3.49 µM) | 1.73 (≈ 3.3 µM) | 0.232 (≈ 0.443 µM) |  | 0.375 (≈ 0.716 µM) | 2.87 (≈ 5.48 µM) |
| COC[C@@H]1CCCN1C/C=C/C(=O)Nc1cc2c(Nc3ccc(F)c(Cl)c3)c(C#N)cnc2cc1OC | 1.74 (≈ 3.32 µM) | 1.24 (≈ 2.37 µM) | 0.234 (≈ 0.447 µM) | 0.148 (≈ 0.282 µM) | 0.329 (≈ 0.628 µM) | 2.1 (≈ 4.01 µM) |

Continued, values first:

| IC50 (EGFR (human) [1]) [µg/mL] | IC50 (EGFR (human) [2]) [µg/mL] | IC50 (EGFR (human) [3]) [µg/mL] | IC50 (EGFR (human) [4]) [µg/mL] | IC50 (EGFR (human) [5]) [µg/mL] | IC50 (EGFR (human) [6]) [µg/mL] | SMILES |
| --- | --- | --- | --- | --- | --- | --- |
| 3.5 (≈ 7.3 µM) | 0.4 (≈ 0.834 µM) | 0.9 (≈ 1.88 µM) | 0.8 (≈ 1.67 µM) |  |  | COCCOCC#CC(=O)Nc1ccc2ncc(C#N)c(Nc3cccc(Br)c3)c2c1 |
| 0.1 (≈ 0.211 µM) | 0.1 (≈ 0.211 µM) |  |  |  |  | C=CCN(C)CC#CC(=O)Nc1ccc2ncc(C#N)c(Nc3cccc(Br)c3)c2c1 |
| 0.2 (≈ 0.373 µM) | 0.5 (≈ 0.932 µM) | 0.1 (≈ 0.186 µM) |  |  |  | COCCN(CC#CC(=O)Nc1ccc2ncc(C#N)c(Nc3cccc(Br)c3)c2c1)CCOC |
| 0.284 (≈ 0.577 µM) | 0.239 (≈ 0.485 µM) | 0.05 (≈ 0.102 µM) |  |  |  | COCCN(C)CC#CC(=O)Nc1ccc2ncc(C#N)c(Nc3cccc(Br)c3)c2c1 |

Reference: the Kinase Knowledgebase extract (Sharma et al. 2016)
